For series [1] the following is noted: bacteroides eggerthii, 12 h, 2 µM.
Description: The drug is tested on Bacteroides eggerthii strain: DSM20697 for biotransformation. The drug concentrations were measured before and after a 12-h incubation by liquid-chromatography-coupled mass spectrometry (LC–MS)
Series [2] is described as follows: The drug is tested on Bifidobacterium longum subsp. Infantis strain: CCUG52486 for biotransformation. The drug concentrations were measured before and after a 12-h incubation by liquid-chromatography-coupled mass spectrometry (LC–MS). Particulars: 2 µM.
The conditions of series [3]: bacteroides fragilis, 12 h, 2 µM.
Description: The drug is tested on Bacteroides fragilis strain: NCTC 9343 for biotransformation. The drug concentrations were measured before and after a 12-h incubation by liquid-chromatography-coupled mass spectrometry (LC–MS)
For series [4] the following is noted: bacteroides thetaiotaomicron, 12 h, 2 µM.
Description: The drug is tested on Bacteroides thetaiotaomicron strain: VPI-5482 for biotransformation. The drug concentrations were measured before and after a 12-h incubation by liquid-chromatography-coupled mass spectrometry (LC–MS)
For series [5] the following is noted: parabacteroides johnsonii, 12 h, 2 µM.
Description: The drug is tested on Parabacteroides johnsonii strain: DSM18315 for biotransformation. The drug concentrations were measured before and after a 12-h incubation by liquid-chromatography-coupled mass spectrometry (LC–MS)
For series [6] the following is noted: bacteroides thetaiotaomicron, 12 h, 2 µM. The source holds these as a separate data set.
Description: The drug is tested on Bacteroides thetaiotaomicron strain: 3731 for biotransformation. The drug concentrations were measured before and after a 12-h incubation by liquid-chromatography-coupled mass spectrometry (LC–MS)
The nature of series [7]: The drug is tested on Anaerotruncus colihominis strain: DSM17241 for biotransformation. The drug concentrations were measured before and after a 12-h incubation by liquid-chromatography-coupled mass spectrometry (LC–MS). The note with it: 2 µM.
A short description of series [8]: The drug is tested on Bacteroides pectinophilus strain: ATCC43243 for biotransformation. The drug concentrations were measured before and after a 12-h incubation by liquid-chromatography-coupled mass spectrometry (LC–MS). Particulars: 2 µM.
Series [9] is described as follows: The drug is tested on Clostridium asparagiforme strain: DSM15981 for biotransformation. The drug concentrations were measured before and after a 12-h incubation by liquid-chromatography-coupled mass spectrometry (LC–MS). The format is ADME. Set-up: dose 2 uM, timepoint 0 vs 12 hours. Particulars: enterocloster asparagiformis, 2 µM.
The nature of series [10]: The drug is tested on Ruminococcus lactaris strain: ATCC29176 for biotransformation. The drug concentrations were measured before and after a 12-h incubation by liquid-chromatography-coupled mass spectrometry (LC–MS). Particulars: 2 µM.
Series [11] is described as follows: The drug is tested on Collinsella intestinalis strain: DSM13280 for biotransformation. The drug concentrations were measured before and after a 12-h incubation by liquid-chromatography-coupled mass spectrometry (LC–MS). Particulars: 2 µM.
The conditions of series [12]: bacteroides thetaiotaomicron, 12 h, 2 µM. The source holds these as a separate data set.
Description: The drug is tested on Bacteroides thetaiotaomicron strain: 7330 for biotransformation. The drug concentrations were measured before and after a 12-h incubation by liquid-chromatography-coupled mass spectrometry (LC–MS)
The conditions of series [13]: bacteroides fragilis, 12 h, 2 µM. The source holds these as a separate data set.
Description: The drug is tested on Bacteroides fragilis strain: DS-208 for biotransformation. The drug concentrations were measured before and after a 12-h incubation by liquid-chromatography-coupled mass spectrometry (LC–MS)
A short description of series [14]: The drug is tested on Bacteroides vulgatus strain: ATCC8482 for biotransformation. The drug concentrations were measured before and after a 12-h incubation by liquid-chromatography-coupled mass spectrometry (LC–MS). Particulars: phocaeicola vulgatus, 2 µM.
A short description of series [15]: The drug is tested on Bacteroides xylanisolvens strain: DSM18836 for biotransformation. The drug concentrations were measured before and after a 12-h incubation by liquid-chromatography-coupled mass spectrometry (LC–MS). Particulars: 2 µM.
Series [16] can be described thus: The drug is tested on Providencia rettgeri strain: DSM1131 for biotransformation. The drug concentrations were measured before and after a 12-h incubation by liquid-chromatography-coupled mass spectrometry (LC–MS). The format is ADME. More on the design: dose 2 uM, timepoint 0 vs 12 hours. The note with it: 2 µM.
The conditions of series [17]: bacteroides stercoris, 12 h, 2 µM.
Description: The drug is tested on Bacteroides stercoris strain: ATCC43183 for biotransformation. The drug concentrations were measured before and after a 12-h incubation by liquid-chromatography-coupled mass spectrometry (LC–MS)
A short description of series [18]: The drug is tested on Clostridium scindens strain: ATCC35704 for biotransformation. The drug concentrations were measured before and after a 12-h incubation by liquid-chromatography-coupled mass spectrometry (LC–MS). Particulars: 2 µM.

For `C=CCN1CC[C@]23c4c5ccc(O)c4O[C@H]2C(=O)CC[C@@]3(O)[C@H]1C5` [NALOXONE], the “Bacterial Biotransformation” value in series [1] is recorded as “Compound metabolized”; in series [2], “Compound NOT metabolized”; in [3], “Compound metabolized”; in [4] it was “Compound metabolized”; in [5] it was “Compound metabolized”; in series [6] it was “Compound metabolized”. The “Bacterial Biotransformation” value is on record as “Compound NOT metabolized” in series [7]; “Compound NOT metabolized” in series [8]; “Compound NOT metabolized” in series [9]; “Compound NOT metabolized” in series [10]; “Compound NOT metabolized” in series [11]; “Compound metabolized” in series [12]. Moreover, the “Bacterial Biotransformation” value in series [13] was “Compound metabolized”; in series [14] it was “Compound metabolized”; in [15], “Compound metabolized”; in [16], “Compound NOT metabolized”.

In the case of `O=C1NCC2(CCN(CCc3ccccc3)CC2)O1` [FENSPIRIDE], the “Bacterial Biotransformation” value in series [2] was “Compound NOT metabolized”; in [17], “Compound metabolized”; in [3], “Compound metabolized”; in series [4] it was “Compound metabolized”; in [5], “Compound metabolized”; in [6], “Compound metabolized”. In addition, the “Bacterial Biotransformation” value in [7] is reported as “Compound NOT metabolized”; in [8], “Compound NOT metabolized”; in [9], “Compound NOT metabolized”; in series [10] it was “Compound NOT metabolized”; in series [11], “Compound NOT metabolized”; in series [12], “Compound metabolized”. For the same compound, the “Bacterial Biotransformation” value in series [13] is listed as “Compound metabolized”; in [14], “Compound NOT metabolized”; in series [15], “Compound NOT metabolized”; in series [18] it was “Compound NOT metabolized”; in [16] it was “Compound NOT metabolized”.

As for `CN1CCN(C(=O)O[C@H]2c3nccnc3C(=O)N2c2ccc(Cl)cn2)CC1` [ESZOPICLONE], the “Bacterial Biotransformation” value in [1] was “Compound NOT metabolized”; in series [2], “Compound metabolized”; in series [17], “Compound NOT metabolized”; in [3], “Compound NOT metabolized”; in series [4], “Compound NOT metabolized”; in series [5], “Compound metabolized”. The “Bacterial Biotransformation” value in series [6] is listed as “Compound NOT metabolized”; in series [7] it was “Compound metabolized”; in [8], “Compound NOT metabolized”; in series [9], “Compound NOT metabolized”; in series [10] it was “Compound NOT metabolized”; in [11] it was “Compound NOT metabolized”. Moreover, the “Bacterial Biotransformation” value is “Compound NOT metabolized” in series [12]; “Compound metabolized” in [14]; “Compound NOT metabolized” in series [15]; “Compound NOT metabolized” in [18]; “Compound NOT metabolized” in [16].

The values are drawn from ChEMBL document CHEMBL5303573, “Mapping human microbiome drug metabolism by gut bacteria and their genes” (Nature, 2019).
